No end group written: not given here.
What was measured:
[1] = test system: GFP-expressing HHV-8 (rHHV-8.152); assay: HHV-8 infection assay in HCjE cells; assay type: cell-based, human herpesvirus-8; conditions: for fluorescence from GFP virus replication (microscopy): fluorescent microscope (FIG. 5D); for GFP-expression of HHV-8 (RFU): 48 h, fluorescence reader (FIG. 5C)
Method: HCjE cells grown in chamber slides (Labteck) or in a 96 well plate were pre-treated with G1, G2, or control peptides for 60 min at room temperature followed by inoculation with recombinant rHHV-8.152, expressing the green fluorescent protein (GFP). Viera et al., J. Virol. 72:5182-5188 (2000). 48-hr post-infection, GFP-positive cells were visualized under microscope (Zeiss Axioverst 100M). HHV-8 infection was determined as relative fluorescence units (RFU) using GENios Pro plate reader (TECAN) at 480-nm excitation and 520-nm emission frequencies. Five measurements of negative control, positive control, and the test samples were performed. Data were expressed as mean±SD.
The ability to block HHV-8 infection was examined in human conjunctival epithelial (HCjE) cells, a natural target for HHV-8 infection. Human conjunctival (HCjE) cells were pre-incubated with G1, G2 or control peptide (Cp) were infected with HHV-8 virions for 48 h at 37° C. After incubation the cells were washed thoroughly to remove unbound viruses. GFP-expression of HHV-8 was quantitated by determining relative fluorescence units (RFU) using a 96-well fluorescence reader (TECAN). Emission of fluorescence indicates virus infection. […] This was confirmed by examination of individual cells by fluorescence microscopy.
Viral replication in HCjE cells was visualized under fluorescent microscope (Zeiss Axiovert 100) in cells that were pretreated with G1, G2 or Cp, as described above (FIG. 5D). Asterisks indicate significant difference from controls and/or treatments (P<0.05, t test) and error bars represent SD. […] G1 may have some activity but the virus can possibly overcome it easily.

[2] = test system: HSV-1 (KOS); assay: Mouse cornea model of HSV-1 infection (immunohistochemistry); assay type: in vivo, BALB/c mice
Method: BALB/c mice with pre-scarred corneal upper surface were treated with PBS-based eye drops containing 0.5 mM G1, G2, or control peptide followed by inoculation of HSV-1 (KOS). Mice were sacrificed after 4 and 7 days for HSV-1 detection. Immunohistochemistry was performed as described by Akhtar et al., Invest. Ophthalmol. Vis. Sci. 49:4026-4035 (2008). Briefly, tissue sections were hydrated with distilled water and antigen retrieval was performed using DAKO Target Retrieval Solution 10× concentrate (DAKO, Carpinteria, Calif.). Nonspecific staining was blocked using H2O2 solution for 10 minutes followed by a protein block for 10 minutes. Sections were incubated with HSV-1 gD specific antiserum (1:100 dilution) at room temperature for 1 hr followed by a 40-minute incubation with the secondary antibody (HRP-conjugated goat anti-rabbit IgG, 1:500; Sigma, St. Louis, Mo.). Expression of gD was detected using the DAKO Envision^+ kit. Confocal and differential interference contrast (DIC) image acquisition was conducted with an SB2-AOBS confocal microscope (Leica, Solms, Germany).
Immunohistochemistry was used to locate HSV-1 glycoprotein D (gD) expression in the cornea pre-treated with either a control peptide, G1 or G2 followed by HSV-1 infection. 100 μl of G1, G2, or Cp (control) peptide at 0.5 mM concentration was poured into the mouse cornea as a prophylactic “eye drop” followed by an infection with HSV-1 (KOS) at 10^6 PFU. At 4 or 7 days post infection, immunohistochemistry was performed using anti-HSV-1 gD polyclonal antibody.

[3] = test system: β-galactosidase expressing CMV; assay: CMV entry assay in RPE cells; assay type: cell-based, cytomegalovirus; conditions: 0.5 mM, 60 min pre-treatment, 8 h, ONPG and X-gal
Method: Natural target RPE cells were incubated with G1 and G2 peptides for 60 min at room temperature before the cells were infected with β-galactosidase expressing CMV (ATCC) for 8 h. β-galactosidase assays were performed using either a soluble substrate o-nitrophenyl-β-D-galactopyranoside (ONPG at 3.0 mg/ml; ImmunoPure, Pierce) or X-gal (Sigma).
In order to detect each peptide's effect on viral entry, Lac Z-expressing reporter CMV and GFP-expressing HHV-8 viruses (Viera et al., J. Virol. 72:5182-5188 (2000)) and their natural target cells were employed for entry measurements. […] A monolayer of cultured RPE cells grown in a 96 well plate were pre-treated with G1, G2, or control peptide (Cp) at 0.5 mM concentration (FIG. 5A). A mock-treated population of RPE cells served as positive control (abbreviated as C). After 60 min of incubation at room temperature, the cells were infected with β-galactosidase expressing CMV reporter virus. After 8 h, viral entry was measured as described for FIG. 1.
The effect of CMV entry blocking activity of G1, G2 or Cp peptide for individual RPE cells was determined by X-gal staining, which yields an insoluble blue product upon hydrolysis by β-galactosidase (FIG. 5B). Individual cells were examined using a Zeiss Axiovert 100 microscope at 20× magnification. Infected cells turn blue. […]

[4] = 100 μl eye drop at 0.5 mM before 10^6 PFU, 4 and 7 days post infection

Sequence | fluorescence from GFP virus replication (microscopy) [1] | HSV-1 gD staining in cornea ([2]; 0.5 mM eye drop, day 4) | corneal inflammation ([2]; 0.5 mM eye drop, day 4) | HSV-1 staining in cornea ([2]; 0.5 mM eye drop, day 7) | state of corneal epithelium ([2]; 0.5 mM eye drop, day 7) | blocking of CMV entry [3] | GFP-expression of HHV-8 (RFU) [1] | HSV-1 protein (gD) expression in cornea [2, 4] | state of corneal epithelium [2, 4]
RVCGSIGKEVLG [Cp, reference compound] | fluorescence was more easily seen | significant staining for HSV-1 gD | severe chronic inflammation | gone | damage to the corneal epithelium was still evident |  |  |  | 
MPRRRRIRRRQK [G2, MPRRRRIRRRQK] | did not show fluorescence |  |  |  |  | effective in blocking CMV entry | relatively low GFP-expression | virtually no HSV-1 protein expression was detected | epithelium remained intact
LRSRTKIIRIRH [G1, LRSRTKIIRIRH] | fluorescence was more easily seen |  |  |  |  | no effect on viral entry | not found to be statistically significant | virtually no HSV-1 protein expression was detected | epithelium remained intact

Reference: patent US9464113B2, “Anti-heparan sulfate peptides that block herpes simplex virus infection in vivo” (The Board of Trustees of the University of Illinois, priority 2010, dated 2016)
